Results on 15 compounds are retold here after patent US8765736B2, “Benzenesulfonamide compounds and the use thereof” (Purdue Pharma L.P., priority 2007, dated 2014).

The IC50 is the concentration at which inhibition is half-maximal.

Some results are limits rather than exact numbers.

Test [1] addresses T1, recombinant rat L-type calcium channel (LTCC) subunits (α1c, α2δ, and β1) (Rattus norvegicus, UniProt P22002).
T1 construct: expressed in transfected cells; α1c in pcDNA6.2DEST, β1 in pcDNA3.2DEST, α2δ in pcDNA3.1-Zeo
Description: FLIPR calcium mobilization assay for L-type calcium channel. Format: cell-based. Particulars: calcium mobilization in vitro assay; HEK293 cells stably expressing rat LTCC subunits, 90 mM KCl. The protocol:
Recombinant human embryonal kidney cells (HEK293, ATCC) stably transfected with either N-type calcium channel (NTCC) subunits (α1b (SEQ ID NOs: 13 to 15), α2δ (SEQ ID Nos: 16, 17), and β3 (SEQ ID NOs:18 to 20)) or L-type calcium channel (LTCC) subunits (α1c (SEQ ID NOs:21, 22), α2δ, and β1 (SEQ ID NOs:23 to 25)) were routinely cultured in growth medium consisting of Dulbecco's Modified Eagles Medium containing 10% FBS, 100 U/mL penicillin, 100 μg/mL streptomycin, 4 mM L-glutamine, 500 μg/mL geneticin (G418), 20 μg/mL Blasticidin S (InVivogen, San Diego, Calif.) and 500 μg/mL zeocin (InVivogen).
FLIPR Calcium Mobilization Assay for L-type Calcium Channel. One day prior to performing this assay, HEK293 cells stably expressing recombinant rat L-type calcium channel (LTCC) subunits (α1c, α2δ, and β1) were trypsinized, then seeded on poly-D-lysine-coated 96-well clear-bottom black plates (Becton Dickinson, Franklin Lakes, N.J.) at 75,000 cells/well. On the day of the assay, the plates were washed with LTCC wash buffer (127 mM NaCl, 2 mM MgCl2, 700 μM NaH2PO4, 5 mM CaCl2, 5 mM NaHCO3, 8 mM HEPES, 10 mM glucose, pH 7.4), then loaded with 0.1 mL of LTCC wash buffer containing Fluo-4 (3 μM final concentration, Molecular Probes, Eugene, Oreg.). After 1 hour, the cells were washed with 0.1 mL LTCC wash buffer and resuspended in 0.05 mL LTCC assay buffer (same composition as LTCC wash buffer). Plates were then transferred to a FLIPR^96 for assay. The FLIPR measured basal Fluo-4 fluorescence for 15 seconds, then added 0.05 mL of each compound tested diluted in LTCC assay buffer at final concentrations ranging from about 846 pM to about […]. Fluo-4 fluorescence was then measured for 5 minutes. 0.1 mL KCl agonist dissolved in LTCC assay buffer was then added to the cells to produce a final concentration of 90 mM KCl, and fluorescence was measured for another 45 seconds. Data were collected over the entire time course and analyzed using Excel, Graph Pad Prism, or an in-house regression analysis software.
L-type Recombinant Cell Line Development. L-type calcium channel expressing HEK-293 cells were created in two stages. Stage 1 was created as follows. The rat α1c, and β1 cDNA expression constructs (2.5 μg each) were co-transfected into human embryonic kidney (HEK-293) cells by Lipofectamine Plus reagent (Invitrogen), as per manufacturer's instructions. 24 hours later, cells were split in limiting dilution into multiple 96-well plates in selection media containing 20 μg/mL blasticidin and 500 μg/mL geneticin, and incubated for 3 weeks at 37° C., 5% CO2, 95% humidity. Plates containing ≦1 clone per well were cultured until wells positive for single clones were confluent. Individual clones were then arrayed into columns of a destination 96-well plate, and partly split into 6-well plates for culture maintenance. Array plates were washed once with LTCC wash (or assay) buffer and cells loaded for 1 hour with 0.1 mL of LTCC buffer containing Fluo-4 (3 μM final concentration, Molecular Probes). Then they were washed twice with 0.1 mL of LTCC buffer, and replaced with 0.1 mL LTCC buffer. Plates were then transferred to a FLIPR^96 for assay. The FLIPR measured basal Fluo-4 fluorescence for 315 seconds, then added 0.1 mL KCl agonist dissolved in LTCC buffer and measured fluorescence for another 45 seconds. Final KCl concentration was 90 mM. Data were collected over the entire time course and analyzed using Excel, Graph Pad Prism, or Activity Base software. The clone with the greatest signal-to-noise ratio, best stability of response with passage number, and best adhesion to PDL precoated plates (Becton Dickinson) was expanded, characterized and used for stage 2 cell line development.
Stage 2 of L-type cell line development was carried out as follows. The rat α2δ cDNA expression construct (5 μg each) was transfected into the stage 1 L-type clonal cell line by Lipofectamine Plus reagent (Invitrogen), as per manufacturer's instructions. […]

For test [2], the target named is T2, N-type calcium channel (NTCC) (Homo sapiens, UniProt Q00975).
T2 construct: endogenous in cells; host or cells: IMR32 cells (ATCC), differentiated with dibutyryl cAMP and bromodeoxyuridine
Description: FLIPR calcium mobilization assay for N-type calcium channel. The class given is cell-based. Particulars: calcium mobilization in vitro assay; differentiated IMR32 cells, 5 μM nitrendipine, 90 mM KCl. On the procedure: Cell maintenance and differentiation. Unless noted otherwise, cell culture reagents were purchased from Mediatech of Herndon, Md. IMR32 cells (American Type Culture Collection, ATCC, Manassas, Va.) were routinely cultured in growth medium consisting of minimum essential medium containing 10% fetal bovine serum (FBS, Hyclone, Logan, Utah), 100 U/mL penicillin, 100 μg/mL streptomycin, 2 mM L-glutamine, 1 mM sodium pyruvate, and 1×MEM non-essential amino acids. 80-90% confluent flasks of cells were differentiated using the following differentiation medium: Growth medium plus 1 mM dibutyryl cyclic AMP (Sigma, St. Louis, Mo.), and 2.5 μM bromodeoxyuridine (Sigma). Cells were differentiated for 8 days by replacing differentiation medium every 2-3 days.
FLIPR Calcium Mobilization Assay for N-type Calcium Channel. One day prior to performing this assay, differentiated IMR32 cells were treated with 1× CellStripper, and seeded on poly-D-lysine-coated 96-well clear-bottom black plates (Becton Dickinson, Franklin Lakes, N.J.) at 200,000 cells/well. On the day of the assay, the cell plates were washed with IMR32 buffer (127 mM NaCl, 1 mM KCl, 2 mM MgCl2, 700 μM NaH2PO4, 5 mM CaCl2, 5 mM NaHCO3, 8 mM HEPES, 10 mM glucose, pH 7.4), then pre-stimulated with KCl and loaded as follows: 0.05 mL of IMR32 buffer, 0.05 mL of each compound tested diluted in IMR32 buffer containing 20 μM nitrendipine (Sigma), and 0.1 mL KCl dissolved in IMR32 buffer, plus Fluo-4 were added (3 μM final concentration, Molecular Probes, Eugene, Oreg.). Final test compound concentrations ranged from about 846 pM to about 17 μM, final nitrendipine concentration was 5 μM, and final KCl concentration was 90 mM. After 1 hour, the cells were washed twice with 0.05 mL of each compound tested in nitrendipine-containing IMR32 buffer (no KCl or Fluo-4), and then replaced with 0.1 mL of each compound tested in nitrendipine-containing IMR32 buffer. Plates were then transferred to a Fluorimetric Imaging Plate Reader (FLIPR^96, Molecular Devices, Inc., Sunnyvale, Calif.) for assay. The FLIPR measured basal Fluo-4 fluorescence for 315 seconds (i.e., 5 minutes and 15 seconds), then added 0.1 mL KCl agonist dissolved in IMR32 buffer and measured fluorescence for another 45 seconds. Final test compound concentrations on the cells after FLIPR read ranged from about 846 pM to about 17 μM, final nitrendipine concentration was 5 μM, and final KCl concentration was 90 mM. Data were collected over the entire time course and analyzed using Excel, Graph Pad Prism (version 3.02, Graph Pad, San Diego, Calif.), or an in-house non-linear regression analysis software.
For orientation: A change in cytosolic calcium serves as a functional read-out for many receptors and channels.

T1 sequence (P22002 whole entry): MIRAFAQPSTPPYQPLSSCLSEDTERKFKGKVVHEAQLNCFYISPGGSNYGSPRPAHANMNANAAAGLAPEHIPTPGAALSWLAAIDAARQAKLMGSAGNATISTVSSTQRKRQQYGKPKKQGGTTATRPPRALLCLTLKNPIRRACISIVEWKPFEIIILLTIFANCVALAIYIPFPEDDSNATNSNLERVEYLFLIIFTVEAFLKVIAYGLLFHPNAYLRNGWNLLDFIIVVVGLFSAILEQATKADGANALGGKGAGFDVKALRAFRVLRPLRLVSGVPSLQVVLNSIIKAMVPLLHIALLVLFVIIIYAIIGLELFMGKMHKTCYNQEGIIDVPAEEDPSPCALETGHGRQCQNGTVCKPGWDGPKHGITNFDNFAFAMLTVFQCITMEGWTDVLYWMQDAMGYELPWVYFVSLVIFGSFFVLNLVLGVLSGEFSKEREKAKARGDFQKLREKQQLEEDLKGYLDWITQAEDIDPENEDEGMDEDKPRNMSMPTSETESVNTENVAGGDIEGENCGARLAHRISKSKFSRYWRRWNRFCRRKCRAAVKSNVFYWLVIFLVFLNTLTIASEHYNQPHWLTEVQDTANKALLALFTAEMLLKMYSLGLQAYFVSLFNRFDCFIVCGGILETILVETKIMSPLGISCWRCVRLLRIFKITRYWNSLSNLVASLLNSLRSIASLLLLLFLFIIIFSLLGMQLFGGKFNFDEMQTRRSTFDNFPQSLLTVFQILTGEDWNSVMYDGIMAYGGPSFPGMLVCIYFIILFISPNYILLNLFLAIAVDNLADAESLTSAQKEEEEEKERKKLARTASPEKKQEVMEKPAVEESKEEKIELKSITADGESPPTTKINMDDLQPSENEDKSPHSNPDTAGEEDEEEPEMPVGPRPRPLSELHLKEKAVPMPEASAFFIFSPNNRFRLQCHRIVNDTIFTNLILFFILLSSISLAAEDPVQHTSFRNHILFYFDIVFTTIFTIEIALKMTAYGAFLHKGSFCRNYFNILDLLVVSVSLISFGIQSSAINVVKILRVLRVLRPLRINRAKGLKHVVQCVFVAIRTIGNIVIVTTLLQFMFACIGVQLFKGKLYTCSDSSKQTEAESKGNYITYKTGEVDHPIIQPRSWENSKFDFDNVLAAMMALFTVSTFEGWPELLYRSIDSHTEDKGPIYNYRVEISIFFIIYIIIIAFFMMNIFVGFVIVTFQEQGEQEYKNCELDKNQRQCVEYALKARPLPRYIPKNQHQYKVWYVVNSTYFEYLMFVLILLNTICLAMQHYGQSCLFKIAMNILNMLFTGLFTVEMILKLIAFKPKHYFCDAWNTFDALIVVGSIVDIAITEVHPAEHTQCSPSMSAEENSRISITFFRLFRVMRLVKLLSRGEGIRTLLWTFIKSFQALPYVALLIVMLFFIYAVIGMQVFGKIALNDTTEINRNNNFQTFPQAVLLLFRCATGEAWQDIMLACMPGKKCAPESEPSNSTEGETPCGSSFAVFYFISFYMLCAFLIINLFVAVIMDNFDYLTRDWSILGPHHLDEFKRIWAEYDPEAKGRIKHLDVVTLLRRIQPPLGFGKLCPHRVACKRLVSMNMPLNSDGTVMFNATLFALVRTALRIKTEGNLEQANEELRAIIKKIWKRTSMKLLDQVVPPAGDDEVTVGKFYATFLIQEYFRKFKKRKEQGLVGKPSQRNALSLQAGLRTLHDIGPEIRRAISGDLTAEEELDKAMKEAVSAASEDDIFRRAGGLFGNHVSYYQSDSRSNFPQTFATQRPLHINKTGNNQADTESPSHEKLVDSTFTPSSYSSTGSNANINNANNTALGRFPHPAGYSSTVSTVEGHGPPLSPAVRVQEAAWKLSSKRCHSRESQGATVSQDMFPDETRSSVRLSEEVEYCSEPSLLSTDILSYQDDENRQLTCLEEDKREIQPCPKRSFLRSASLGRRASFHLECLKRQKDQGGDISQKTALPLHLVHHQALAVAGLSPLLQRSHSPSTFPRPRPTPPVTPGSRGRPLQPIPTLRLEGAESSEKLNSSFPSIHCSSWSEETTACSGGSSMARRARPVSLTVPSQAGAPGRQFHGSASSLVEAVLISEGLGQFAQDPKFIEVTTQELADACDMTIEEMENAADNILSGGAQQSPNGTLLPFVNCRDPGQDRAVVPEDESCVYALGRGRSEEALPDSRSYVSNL
T1 sequence (P54290 25-944 partner): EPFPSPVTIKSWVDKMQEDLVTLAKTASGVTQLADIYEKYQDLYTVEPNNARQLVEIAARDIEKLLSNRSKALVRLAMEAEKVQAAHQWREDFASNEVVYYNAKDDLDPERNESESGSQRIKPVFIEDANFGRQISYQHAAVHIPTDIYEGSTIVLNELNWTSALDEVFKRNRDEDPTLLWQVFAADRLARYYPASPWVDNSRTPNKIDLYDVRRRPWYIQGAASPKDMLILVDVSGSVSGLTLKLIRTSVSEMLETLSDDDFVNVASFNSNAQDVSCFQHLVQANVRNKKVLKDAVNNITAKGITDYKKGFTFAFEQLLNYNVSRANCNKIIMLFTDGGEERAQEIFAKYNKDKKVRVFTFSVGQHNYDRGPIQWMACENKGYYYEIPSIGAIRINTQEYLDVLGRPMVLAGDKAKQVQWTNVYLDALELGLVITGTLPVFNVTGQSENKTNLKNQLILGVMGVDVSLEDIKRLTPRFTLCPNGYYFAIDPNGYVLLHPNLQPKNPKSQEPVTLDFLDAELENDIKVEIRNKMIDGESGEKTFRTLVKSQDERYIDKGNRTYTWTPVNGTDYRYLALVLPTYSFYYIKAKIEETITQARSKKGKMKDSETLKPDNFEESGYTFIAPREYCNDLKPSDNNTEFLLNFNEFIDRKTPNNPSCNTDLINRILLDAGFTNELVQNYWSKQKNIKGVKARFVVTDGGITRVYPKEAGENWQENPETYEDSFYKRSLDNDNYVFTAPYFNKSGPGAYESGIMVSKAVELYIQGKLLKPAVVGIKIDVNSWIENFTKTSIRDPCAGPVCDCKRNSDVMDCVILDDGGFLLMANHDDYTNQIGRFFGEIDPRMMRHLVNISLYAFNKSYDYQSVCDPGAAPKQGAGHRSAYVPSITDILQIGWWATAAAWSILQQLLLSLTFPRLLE
T1 sequence (P54290 945-1091 partner): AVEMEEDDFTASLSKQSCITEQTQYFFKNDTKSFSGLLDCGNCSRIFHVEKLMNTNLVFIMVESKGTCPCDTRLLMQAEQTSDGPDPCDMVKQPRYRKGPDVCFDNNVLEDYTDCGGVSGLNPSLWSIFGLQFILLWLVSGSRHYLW
T1 sequence (P54283 whole entry partner): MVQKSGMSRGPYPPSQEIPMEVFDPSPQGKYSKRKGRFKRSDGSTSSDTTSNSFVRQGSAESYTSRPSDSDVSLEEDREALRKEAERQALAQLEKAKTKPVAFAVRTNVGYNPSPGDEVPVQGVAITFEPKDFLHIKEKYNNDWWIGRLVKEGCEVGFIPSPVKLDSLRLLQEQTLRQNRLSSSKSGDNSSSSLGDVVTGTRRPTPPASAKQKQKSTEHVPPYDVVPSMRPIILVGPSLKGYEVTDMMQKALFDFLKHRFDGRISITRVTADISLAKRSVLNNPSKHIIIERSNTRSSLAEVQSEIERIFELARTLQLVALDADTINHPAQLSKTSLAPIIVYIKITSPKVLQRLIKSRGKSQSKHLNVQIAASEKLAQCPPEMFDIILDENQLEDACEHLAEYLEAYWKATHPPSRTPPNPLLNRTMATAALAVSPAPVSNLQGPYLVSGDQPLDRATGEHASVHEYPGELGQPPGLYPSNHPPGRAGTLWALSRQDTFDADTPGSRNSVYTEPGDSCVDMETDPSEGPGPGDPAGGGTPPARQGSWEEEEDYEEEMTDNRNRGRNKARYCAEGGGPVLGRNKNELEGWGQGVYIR

With `CC(C)(C(=O)Nc1ccc(F)cc1)N1CCC(N(C2CC2)S(=O)(=O)c2cccc(C(F)(F)F)c2)CC1` [Compound 21b, 2-{-4-[Cyclopropyl-(3-trifluoromethyl-benzenesulfonyl)-amino]-piperidin-1-yl}-N-(4-fluoro-phenyl)-isobutyramide], the IC50 is over 20000 nM in test [1] and 600 nM in test [2]. On the same counts, the results for `CC(C(=O)Nc1ccccc1)N1CCC(N(C2CC2)S(=O)(=O)c2cccc(C(F)(F)F)c2)CC1` (stereo not drawn) [Compound 27b, 2-{4-[Cyclopropyl-(3-trifluoromethyl-benzenesulfonyl)-amino]piperidin-1-yl}-N-phenyl-propionamide] are over 20000 nM and 390 nM. Take `CC(C)N(C1CCN(CC(=O)N2CCCC2)CC1)S(=O)(=O)c1cccc(C(F)(F)F)c1` [Compound 31b, N-Isopropyl-N-[1-(2-oxo-2-pyrrolidin-1-yl-ethyl)-piperidin-4-yl]-3-trifluoromethyl-benzenesulfonamide]: in test [2], the IC50 was 1610 nM. With `O=C(CN1CCC(N(C2CC2)S(=O)(=O)c2cccc(C(F)(F)F)c2)CC1)Oc1ccc(Cl)cc1` [Compound 8c, {-4-[Cyclopropyl-(3-trifluoromethyl-benzenesulfonyl)amino]piperidin-1-yl}acetic acid 4-chlorophenyl ester], the half-inhibitory concentration (IC50) in test [1] was over 20000 nM; in test [2], 600 nM. Consider `O=C(NCCN1CCC(N(C2CC2)S(=O)(=O)c2cccc(C(F)(F)F)c2)CC1)c1ccc(F)cc1` [Compound 14a, N-(2-{-4-[Cyclopropyl-(3-trifluoromethylbenzenesulfonyl)amino]piperidin-1-yl}ethyl)-4-fluorobenzamide], for which the results for the half-maximal inhibitory concentration (IC50) in test [1] and in test [2] were 6740 nM and 380 nM, respectively. For the compound `CC(C)N(C1CCN(CC(=O)NC2CC3CCC2C3)CC1)S(=O)(=O)c1cccc(C(F)(F)F)c1` (stereo not drawn) [Compound 31d, N-Bicyclo[2.2.1]hept-2-yl-2-{4-[isopropyl-(3-trifluoromethyl-benzenesulfonyl)-amino]-piperidin-1-yl}-acetamide], the 50% inhibitory concentration (IC50) in test [1] was found to be 4120 nM; in test [2] it was 340 nM.

`CCOC(=O)c1cccnc1N1CCC(N(C2CC2)S(=O)(=O)c2cccc(C(F)(F)F)c2)CC1` [Compound 10b, 4-[Cyclopropyl-(3-trifluoromethyl-benzenesulfonyl)amino]-3,4,5,6-tetrahydro-2H-[1,2′]-bipyridinyl-3′-carboxylic acid ethyl ester]: the IC50 in test [2] stood at 1440 nM. Consider `O=C(NCCN1CCC(N(C2CC2)S(=O)(=O)c2cccc(C(F)(F)F)c2)CC1)c1cc(C(F)(F)F)cc(C(F)(F)F)c1` [Compound 14b, N-(2-{4-[Cyclopropyl-(3-trifluoromethylbenzenesulfonyl)amino]piperidin-1-yl}ethyl)-3,5-bis(trifluoromethyl)phenylbenzamide], for which, in test [2], the IC50 worked out at 1130 nM. As to `CC(C)N(C1CCN(CC(=O)Nc2ccc3c(c2)OC(F)(F)O3)CC1)S(=O)(=O)c1cccc(C(F)(F)F)c1` [Compound 31f, N-(2,2-Difluoro-benzo[1,3]dioxol-5-yl)-2-{4-[isopropyl-(3-trifluoromethyl-benzenesulfonyl)-amino]-piperidin-1-yl}-acetamide], the results for the IC50 in test [1] and in test [2] were over 20000 nM and 580 nM, respectively. As to `O=S(=O)(c1cccc(C(F)(F)F)c1)N(C1CC1)C1CCN(c2cc(C(F)(F)F)cc(C(F)(F)F)c2)CC1` [Compound 10e, N-[1-(3,5-Bis-(trifluoromethyl)phenyl)piperidin-1-yl]-N-cyclopropyl-3-trifluoromethylbenzenesulfonamide], the IC50 in test [2] is 6270 nM. As for `CC(C)N(C1CCN(CC(=O)NC2CCOC2)CC1)S(=O)(=O)c1cccc(C(F)(F)F)c1` (stereo not drawn) [Compound 31e, 2-{4-[Isopropyl-(3-trifluoromethyl-benzenesulfonyl)-amino]-piperidin-1-yl}-N-(tetrahydrofuran-3-yl)-acetamide], the IC50 in test [2] came out at 3200 nM. Same read-out and setting: with `CCOC(=O)C(C)N1CCC(N(C(C)C)S(=O)(=O)c2cccc(C(F)(F)F)c2)CC1` (stereo not drawn) [Compound 8a, 2-[4-[Isopropyl-(3-trifluoromethyl-benzenesulfonyl)amino]piperidin-1-yl}propionic acid ethyl ester] the figure was 1010 nM.

Turning to `CC(C)(C(=O)Nc1ccc(F)cc1Cl)N1CCC(N(C2CC2)S(=O)(=O)c2cccc(C(F)(F)F)c2)CC1` [Compound 21a, N-(2-Chloro-4-fluorophenyl)-2-{-4-[cyclopropyl-(3-trifluoromethyl-benzenesulfonyl)-amino]-piperidin-1-yl}-isobutyramide], the IC50 in test [2] was determined as 1600 nM. Turning to `CCOC(=O)c1cc(F)cc(N2CCC(N(C3CC3)S(=O)(=O)c3cccc(C(F)(F)F)c3)CC2)c1` [Compound 10c, 3-{-4-[Cyclopropyl-(3-trifluoromethyl-benzenesulfonyl)amino]piperidin-1-yl}-5-fluorobenzoic acid ethyl ester], the IC50 in test [2] is 1070 nM. Still for that read-out and setting: with `CCOC(=O)c1ccc(N2CCC(N(C3CC3)S(=O)(=O)c3cccc(C(F)(F)F)c3)CC2)cc1` [Compound 10d, 4-{-4-[Cyclopropyl-(3-trifluoromethyl-benzenesulfonyl)amino]piperidin-1-yl}benzoic acid ethyl ester] the figure was 1310 nM.
